Several values for one entry are separate records, joined by “and”; a condition that tells them apart may be missing. Equal values may be shown once.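 These data come from cells grown in 96-well plates and exposed to compound for 48 hours at five concentrations. GI50 marks 50% less growth. TGI: concentration producing complete growth inhibition.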
How the values were obtained:
Assay in all cases: NCI-60 cell line screen, 48 h
OVCAR-3 ovarian = test system: OVCAR-3 ovarian
HCT-15 colon = test system: HCT-15 colon
SF-268 CNS = test system: SF-268 CNS
NCI-H23 lung = test system: NCI-H23 lung
ACHN renal = test system: ACHN renal
SK-MEL-28 melanoma = test system: SK-MEL-28 melanoma
HOP-92 NSCLC = test system: HOP-92 NSCLC
U251 CNS = test system: U251 CNS
SK-OV-3 ovarian = test system: SK-OV-3 ovarian
PC-3 prostate = test system: PC-3 prostate

Compound: Oc1c(I)cc(I)cc1CNCCCN(Cc1ccccn1)Cc1ccccn1
- GI50 (OVCAR-3 ovarian): 0.948 µM
- TGI (OVCAR-3 ovarian): 1.85 µM
- GI50 (HCT-15 colon): 1.13 µM
- TGI (HCT-15 colon): 2.79 µM
- GI50 (SF-268 CNS): 1.18 µM
- TGI (SF-268 CNS): 3.21 µM
- GI50 (NCI-H23 lung): 1.16 µM
- TGI (NCI-H23 lung): 3.22 µM
- GI50 (ACHN renal): 0.912 µM
- TGI (ACHN renal): 1.65 µM
- GI50 (SK-MEL-28 melanoma): 1.22 µM
- TGI (SK-MEL-28 melanoma): 3.16 µM
- GI50 (HOP-92 NSCLC): 0.985 µM
- TGI (HOP-92 NSCLC): 2.48 µM
- GI50 (U251 CNS): 1.11 µM
- TGI (U251 CNS): 2.68 µM
- GI50 (SK-OV-3 ovarian): 1.01 µM
- TGI (SK-OV-3 ovarian): 2.18 µM
- GI50 (PC-3 prostate): 1.17 µM
- TGI (PC-3 prostate): 3.02 µM

Compound: Cc1cc(=O)c2c(O)c3c(O)cc(O)c4c5c(O)cc(O)c6c(O)c7c(=O)cc(C)c8c1c2c(c34)c(c65)c78
- TGI (OVCAR-3 ovarian): > 100 µM
- GI50 (HCT-15 colon): > 100 µM and 20.1 µM
- TGI (HCT-15 colon): > 100 µM and 52 µM
- TGI (SF-268 CNS): > 100 µM
- GI50 (NCI-H23 lung): > 100 µM and 23 µM
- TGI (NCI-H23 lung): > 100 µM and 60.2 µM
- TGI (ACHN renal): > 100 µM
- TGI (SK-MEL-28 melanoma): > 100 µM
- GI50 (HOP-92 NSCLC): 36.7 µM and 15.1 µM
- TGI (HOP-92 NSCLC): > 100 µM and 47.4 µM
- GI50 (U251 CNS): > 100 µM and 37.3 µM
- TGI (U251 CNS): > 100 µM
- GI50 (SK-OV-3 ovarian): > 100 µM and 21.6 µM
- TGI (SK-OV-3 ovarian): > 100 µM and 41.9 µM
- TGI (PC-3 prostate): > 100 µM

Compound: COC(=O)C1=C(OC(=O)/C(=C/c2ccc(Cl)cc2)c2ccccc2)C(C(=O)OC)[C@@]2(O)[C@@H](C(=O)OC)[C@H](C)C[C@@H]1[C@@H]2C(=O)OC (stereo not given in full)
- TGI (OVCAR-3 ovarian): > 100 µM
- TGI (HCT-15 colon): > 100 µM
- TGI (SF-268 CNS): > 100 µM
- TGI (NCI-H23 lung): > 100 µM
- TGI (ACHN renal): > 100 µM
- TGI (SK-MEL-28 melanoma): > 100 µM
- TGI (HOP-92 NSCLC): > 100 µM
- TGI (U251 CNS): > 100 µM
- TGI (SK-OV-3 ovarian): > 100 µM
- TGI (PC-3 prostate): > 100 µM

Compound: Cc1ccc([N+](=O)[O-])cc1S(=O)(=O)Nc1ccc(C2=NN(c3ccc([N+](=O)[O-])cc3[N+](=O)[O-])C(c3ccccc3O)C2)cc1 (stereo not given)
- TGI (OVCAR-3 ovarian): 61.3 µM
- TGI (HCT-15 colon): > 100 µM
- TGI (SF-268 CNS): > 100 µM
- TGI (NCI-H23 lung): 59.7 µM
- TGI (ACHN renal): > 100 µM
- TGI (SK-MEL-28 melanoma): > 100 µM
- TGI (HOP-92 NSCLC): > 100 µM
- TGI (U251 CNS): > 100 µM
- TGI (SK-OV-3 ovarian): > 100 µM
- TGI (PC-3 prostate): > 100 µM

Compound: CC(=O)Oc1ccc(OC(Oc2ccccc2)c2ccccc2)cc1 (stereo not given)
- TGI (OVCAR-3 ovarian): 49.5 µM
- TGI (HCT-15 colon): > 100 µM
- TGI (SF-268 CNS): > 100 µM
- TGI (NCI-H23 lung): 47.6 µM
- TGI (ACHN renal): 72.1 µM
- TGI (SK-MEL-28 melanoma): 69 µM
- TGI (HOP-92 NSCLC): 34.9 µM
- TGI (U251 CNS): 35.5 µM
- TGI (SK-OV-3 ovarian): > 100 µM
- TGI (PC-3 prostate): > 100 µM

Compound: Cc1ccccc1NC(=S)N=Nc1c(O)[nH]c2ccccc12
- TGI (OVCAR-3 ovarian): > 100 µM
- TGI (HCT-15 colon): > 100 µM
- TGI (SF-268 CNS): 65.3 µM
- TGI (NCI-H23 lung): > 100 µM
- TGI (ACHN renal): > 100 µM
- TGI (SK-MEL-28 melanoma): 36.7 µM
- TGI (HOP-92 NSCLC): > 100 µM
- TGI (U251 CNS): > 100 µM
- TGI (SK-OV-3 ovarian): > 100 µM
- TGI (PC-3 prostate): > 100 µM

Compound: N=C1N=C(N)c2cc3c(cc21)SCCSCCCSCCS3
- TGI (OVCAR-3 ovarian): 28.4 µM
- TGI (HCT-15 colon): 32.3 µM
- TGI (SF-268 CNS): 32.4 µM
- TGI (NCI-H23 lung): 16.2 µM
- TGI (ACHN renal): 28.2 µM
- TGI (SK-MEL-28 melanoma): 31.4 µM
- TGI (HOP-92 NSCLC): > 54.7 µM
- TGI (U251 CNS): > 50.7 µM
- TGI (SK-OV-3 ovarian): 41.1 µM
- TGI (PC-3 prostate): 34.7 µM

Compound: CC(=O)OCC1OC(OCC2OC(N3C(=S)N[C@H]([C@@H](O)[C@H](O)[C@H](O)CO)[C@H]3O)C(OC(C)=O)C(OC(C)=O)C2OC(C)=O)C(OC(C)=O)C(OC(C)=O)C1OC(C)=O (stereo not given in full)
- TGI (OVCAR-3 ovarian): > 100 µM
- TGI (HCT-15 colon): > 100 µM
- TGI (SF-268 CNS): > 100 µM
- TGI (NCI-H23 lung): > 100 µM
- TGI (ACHN renal): > 100 µM
- TGI (SK-MEL-28 melanoma): > 100 µM
- TGI (HOP-92 NSCLC): > 100 µM
- TGI (U251 CNS): > 100 µM
- TGI (SK-OV-3 ovarian): > 100 µM
- TGI (PC-3 prostate): > 100 µM

Compound: C=CCC1NCCC2=C1C(S(=O)(=O)c1ccc(C)cc1)c1ccccc12 (stereo not given)
- TGI (OVCAR-3 ovarian): 26 µM
- TGI (HCT-15 colon): 27.8 µM
- TGI (SF-268 CNS): 34.7 µM
- TGI (NCI-H23 lung): 36.4 µM
- TGI (ACHN renal): 24.3 µM
- TGI (SK-MEL-28 melanoma): 26.6 µM
- TGI (HOP-92 NSCLC): 25.7 µM
- TGI (U251 CNS): 24 µM
- TGI (SK-OV-3 ovarian): 33.2 µM
- TGI (PC-3 prostate): 22.2 µM

Compound: CC(=O)O[C@H]1CC[C@@]2(C)C(=CC[C@@H]3[C@@H]2CC[C@]2(C)c4nc(N)c(C#N)cc4C[C@@H]32)C1
- TGI (OVCAR-3 ovarian): 23.8 µM
- TGI (HCT-15 colon): > 42.6 µM
- TGI (SF-268 CNS): > 100 µM
- TGI (NCI-H23 lung): > 100 µM
- TGI (ACHN renal): > 100 µM
- TGI (SK-MEL-28 melanoma): > 100 µM
- TGI (HOP-92 NSCLC): > 100 µM
- TGI (U251 CNS): > 100 µM
- TGI (SK-OV-3 ovarian): > 83.8 µM
- TGI (PC-3 prostate): > 100 µM

Compound: O=C(CCc1cc(O)cc(O)c1)NCCc1ccc(O)c(O)c1
- TGI (OVCAR-3 ovarian): > 100 µM
- TGI (HCT-15 colon): > 100 µM
- TGI (SF-268 CNS): > 100 µM
- TGI (NCI-H23 lung): > 100 µM
- TGI (ACHN renal): > 100 µM
- TGI (SK-MEL-28 melanoma): > 100 µM
- TGI (HOP-92 NSCLC): > 100 µM
- TGI (U251 CNS): > 100 µM
- TGI (SK-OV-3 ovarian): > 100 µM
- TGI (PC-3 prostate): > 100 µM

Compound: O=C(NN=C1CCCCC1)Nc1ccccc1Cl
- TGI (OVCAR-3 ovarian): 38.8 µM
- TGI (HCT-15 colon): > 100 µM
- TGI (SF-268 CNS): > 100 µM
- TGI (NCI-H23 lung): > 100 µM
- TGI (ACHN renal): > 100 µM
- TGI (SK-MEL-28 melanoma): > 100 µM
- TGI (HOP-92 NSCLC): 94.3 µM
- TGI (U251 CNS): > 100 µM
- TGI (SK-OV-3 ovarian): > 100 µM
- TGI (PC-3 prostate): > 100 µM

Compound: O=C(c1ccc(Cl)cc1)N(Cc1cccnc1)C(=S)N(Cc1cccnc1)C(=O)c1ccc(Cl)cc1
- TGI (OVCAR-3 ovarian): > 100 µM
- TGI (HCT-15 colon): > 100 µM
- TGI (SF-268 CNS): 79.5 µM
- TGI (NCI-H23 lung): > 100 µM
- TGI (ACHN renal): > 100 µM
- TGI (SK-MEL-28 melanoma): > 100 µM
- TGI (HOP-92 NSCLC): > 100 µM
- TGI (U251 CNS): 53.6 µM
- TGI (SK-OV-3 ovarian): > 100 µM
- TGI (PC-3 prostate): 90.3 µM

— PubChem BioAssay (NCI)
